# According to PubChem BioAssay (NCI):
# Values joined by “and” are separate entries in the source; they are usually repeats but may differ in a detail not shown here. Equal entries are not always repeated.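 Compound exposure: 48 hours, 5 concentrations, 96-well plates. Here, GI50 denotes the concentration required for 50% inhibition of growth. TGI marks complete inhibition of growth.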 Numbered stars: 1 amine (or outer) side, 2 acyl side, 3 side chain; on linkers, the order of the positions; unused ones are H or OH. Bridge positions count the residues as written; N and C are the ends. Square brackets hold non-standard residues; d marks the D form. Peptide text beside a SMILES is read from it. I, II: the chains in the order shown. Actinocin(1to9) = Cc1c2oc3c(C)ccc(C(=O)[*:2])c3nc-2c(C(=O)[*:1])c(N)c1=O; NMeY = CN[CH](Cc1ccc(O)cc1)C(=O)O; Sar = CNCC(=O)O
# Legend:
# Assay in all cases: inhibition of tumour cell growth, NCI panel, 48 h
# [1] = system: NCI-H522 lung
# [2] = system: BT-549 breast
# [3] = system: KM12 colon
# [4] = system: OVCAR-3 ovarian
# [5] = system: CCRF-CEM leukemia
# [6] = system: COLO 205 colon
# [7] = system: SK-MEL-2 melanoma
# [8] = system: MCF7 breast
# [9] = system: MDA-MB-435
# [10] = system: A549 NSCLC
Structure (SMILES),TGI [1] [µM],TGI [2],TGI [3],TGI [4],TGI [5],TGI [6],TGI [7],TGI [8],TGI [9],TGI [10],GI50 [1] [µM],GI50 [2] [nM],GI50 [3] [µM],GI50 [4] [nM],GI50 [5],GI50 [6],GI50 [8],GI50 [9] [nM],GI50 [10] [µM],GI50 [7]
COC(C)C(O)(C(=O)OCC1=CCN2CCC(O)C12)C(C)(C)O (configuration not stated),> 100,> 100 µM,> 100 µM,> 100 µM,> 100 µM,> 100 µM,> 100 µM,> 100 µM,> 100 µM,> 100 µM,,,,,,,,,,
CC(C)(C)OC(=O)N[C@@H](Cc1ccccc1)C(=O)N(Cc1ccccc1)C1(C(=O)NCc2ccccc2)CCN(Cc2ccccc2)CC1,> 100,8 µM,> 100 µM,> 100 µM,> 100 µM,3.32 µM,,19.3 µM,> 100 µM,> 100 µM,4.02,2110,4.12,3950,3350 nM,1650 nM,2820 nM,3040,3.85,
O=C(O)c1ccc(SSc2ccc(C(=O)O)cn2)nc1,> 100,> 100 µM,> 100 µM,> 100 µM,> 100 µM,> 100 µM,> 100 µM,> 100 µM,> 100 µM,> 100 µM,,,,,,,,,,
O=C1N=C(Nc2nc(-c3csc(NC4=NC(=O)/C(=C\c5ccccc5)S4)n3)cs2)S/C1=C/c1ccccc1,> 50,,> 50 µM,> 50 µM,,> 50 µM,> 50 µM,> 50 µM,> 50 µM,> 50 µM,38.5,,11.2,20800,,30300 nM,3700 nM,14700,16.3,> 50 µM
O=C1NC(c2ccccc2)C2(C(=O)O)CN(C3CC3)c3cc(N4CCNCC4)c(F)cc3C2N1 (configuration not stated),> 100,> 100 µM,> 100 µM,> 100 µM,> 100 µM,> 100 µM,> 100 µM,> 100 µM,> 100 µM,> 100 µM,> 100,> 100000,> 100,> 100000,> 100000 nM,> 100000 nM,> 100000 nM,> 100000,> 100,> 100 µM
C[C@@H]1CC[C@@]2(NC1)O[C@H]1C[C@H]3[C@@H]4CC[C@H]5C[C@@H](O)CC[C@]5(C)[C@H]4CC[C@]3(C)[C@H]1[C@@H]2C,> 100,> 100 µM,66.8 µM,> 100 µM,> 100 µM,> 100 µM,> 100 µM,> 100 µM,> 100 µM,> 100 µM,,,,,,,,,,
COc1ccc2[nH]c(C(=O)OCc3ccc4c(Cl)cc(Cl)c(O)c4n3)cc2c1,2.99,2.56 µM,3.49 µM,1.83 µM,2.08 µM,2.56 µM,3.37 µM,,2.45 µM,3.4 µM,1.19,1210,1.76,513,312 nM,1130 nM,,1130,1.67,1.61 µM
CCC1=C(CC2NCCc3ccccc32)CC2c3cc(OC)c(OC)cc3CCN2C1 (configuration not stated),,21.2 µM and 9.89 µM,12.2 µM and 4.81 µM,19 µM and 11.3 µM,18.6 µM and 4.53 µM,4.13 µM and 0.547 µM,16.6 µM and 2.64 µM,10.6 µM and 2.3 µM,14.2 µM and 2.45 µM,19.9 µM and 4.88 µM,4.22,9070,3.32,3610,3810 nM,1810 nM and 199 nM,2950 nM,3510,3.49,4.64 µM
CCOC(=O)CN1C(=O)c2cc([N+](=O)[O-])cc3cc([N+](=O)[O-])cc(c23)C1=O,46.3,> 100 µM,> 100 µM,> 100 µM,23.2 µM,> 100 µM,> 62.3 µM,> 100 µM,> 100 µM,> 100 µM,,,,,,,,,,
CC(C)(C)OC(=O)Nc1ccc2c(c1)C(NC(=O)Nc1cccc(C#N)c1)CC(C)(C)O2 (configuration not stated),54.7,18 µM,> 100 µM,> 100 µM,> 100 µM,15.3 µM,31.4 µM,30.7 µM,15.2 µM,> 100 µM,3.61,2650,3.39,2150,3800 nM,3460 nM,1920 nM,1440,2.9,6.4 µM
N#Cc1cccc(N2C(=O)C3C4C=CC(C3C2=O)C2C(=O)N(c3cccc(C#N)c3)C(=O)C42)c1 (configuration not stated),38.2,72.1 µM,> 56.2 µM,> 100 µM,53.7 µM,> 63.1 µM,34.7 µM,> 100 µM,> 100 µM,> 63.1 µM,,,,,,,,,,
COC(=O)N[C@H]1CCc2c(Cl)c(OC)c(OC)c(OC)c2-c2ccc(SC)c(=O)cc21,20.3,1.52 µM,18.8 µM,< 0.01 µM,> 82.7 µM,0.0303 µM,> 70.3 µM,> 37.4 µM,< 0.01 µM,> 100 µM,< 0.01,< 10,< 0.01,< 10,< 10 nM,< 10 nM,< 10 nM,< 10,< 0.01,5.89 µM
"COc1ccc(CC2C(=O)OC(C)C(NC(=O)c3c4nc5c(C(=O)NC6C(=O)NC(C(C)C)C(=O)N7CCCC7C(=O)N(C)CC(=O)N(C)C(Cc7ccc(OC)cc7)C(=O)OC6C)ccc(C)c5oc-4c(C)c(=O)c3N)C(=O)NC(C(C)C)C(=O)N3CCCC3C(=O)N(C)CC(=O)N2C)cc1 (configuration not stated) (I: TVP[Sar][NMeY](Me) / II: TVP[Sar][NMeY](Me); ester I:1-I:C, II:1-II:C; linker I:N-II:N via Actinocin(1to9); configuration not given here)",0.018,0.246 µM,,,< 0.01 µM and 0.0625 µM,0.113 µM,,1.29 µM and > 1 µM,,0.29 µM and > 1 µM,0.00264,,,,< 10 nM and 1.03 nM,4.98 nM,< 10 nM and 3 nM,,,< 0.01 µM and 0.0228 µM
COc1cc2c3c(n(CCCNCCCN)c(=O)c2cc1OC)-c1cc2c(cc1C3=O)OCO2,,20.6 µM,16.9 µM,11.7 µM,15.8 µM,,7.33 µM,5.08 µM,13.5 µM,29.6 µM,,6490,3.51,3080,220 nM,,504 nM,2530,6.11,2.35 µM
C[N+](C)=c1ccc2nc3c(cc(NCCCNc4cc5oc6cc(=[N+](C)C)ccc-6nc5c5ccccc45)c4ccccc43)oc-2c1,4.59,> 64.3 µM,8.81 µM,2.33 µM,21.7 µM,2.45 µM,45.7 µM,3.23 µM,3.29 µM,,1.5,5970,2.55,341,4390 nM,1020 nM,885 nM,1760,,15 µM
Nc1ccc(/C=C/c2ccc3cccnc3c2)cc1,,,> 100 µM,> 100 µM,> 100 µM,> 100 µM,,> 100 µM,> 100 µM,> 100 µM,,,,,,,,,,

Structure (SMILES),TGI [1] [µM],TGI [2],TGI [3],TGI [4],TGI [5],TGI [6],TGI [7],TGI [8],TGI [9],TGI [10],GI50 [1] [µM],GI50 [2] [nM],GI50 [3] [µM],GI50 [4] [nM],GI50 [5],GI50 [6],GI50 [8],GI50 [9] [nM],GI50 [10] [µM],GI50 [7]
CO/N=C(\COc1ccc2oc(-c3ccccc3)cc(=O)c2c1)c1ccc(F)cc1,40.5,> 100 µM,> 100 µM,> 100 µM,> 100 µM,> 100 µM,73.3 µM,,> 100 µM,48.7 µM,15.4,29600,46.9,> 100000,> 100000 nM,59500 nM,,> 100000,20,24.4 µM
CC[PH+](CC)CC.[Cl][Au],0.31,,26 µM,3.42 µM,1.33 µM,5.79 µM,2.95 µM,,,44.4 µM,0.122,,11.6,1890,216 nM,1850 nM,,,15.5,1.38 µM
CC(=O)[CH-]C(=O)c1ccccc1.CC(=O)[CH-]C(=O)c1ccccc1.[O-]c1ccc2c(c1)OCO2.[O-]c1ccc2c(c1)OCO2.[Ti+4],42.1,,38.2 µM,> 100 µM,30.3 µM,> 100 µM,57.7 µM,,,> 100 µM,16.5,,16.2,26800,3660 nM,32000 nM,,,41.7,22.5 µM
CC(=O)[O-].N.N.N.N.[Co+3].[O-][Cl+3]([O-])([O-])[O-].[OH3+],> 100,,> 100 µM,> 100 µM,> 100 µM,> 100 µM,> 100 µM,,,> 100 µM,49.5,,> 100,> 100000,> 100000 nM,> 100000 nM,,,> 100,> 100 µM
C[C@H]1C=C2C(=O)O[C@H]3CC[C@@H](C1)[C@@]23O,8.15,,12.7 µM,16.9 µM,6.05 µM,12.5 µM,10.1 µM,,,34.3 µM,,,,,,,,,,
CC(=O)Oc1ccc2c(c1)C(=O)c1nc(C)c(C)nc1C2=O,89.6,,> 100 µM,59.1 µM,> 100 µM,> 100 µM,> 86.3 µM,,,> 100 µM,,,,,,,,,,
CCn1c2ccccc2c2cc(C(=O)c3ccc(C)c4ccccc34)ccc21,,5.34 µM,14.9 µM,0.938 µM,> 100 µM,0.728 µM,1.81 µM,> 100 µM,0.378 µM,> 100 µM,,574,0.362,308,359 nM,249 nM,311 nM,161,0.421,0.324 µM
C[C@]12C[C@H](O)[C@H]3[C@@H](CCC4=CC(=O)CC[C@@]43C)[C@@H]1CC[C@@H]2c1csc(-c2ccccc2)n1,> 100,> 100 µM,> 100 µM,> 100 µM,,> 100 µM,> 90.5 µM,> 100 µM,> 100 µM,> 100 µM,,,,,,,,,,
COCCNc1cncc(C(N)=O)c1,> 100,> 100 µM,> 100 µM,> 100 µM,> 100 µM,> 100 µM,> 100 µM,> 100 µM,,> 100 µM,,,,,,,,,,
O=c1/c(=N\Nc2ccccc2)c2cccc3ccc4cccc1c4c32,> 100,> 100 µM,> 100 µM,> 100 µM,> 100 µM,> 100 µM,> 100 µM,,> 100 µM,> 100 µM,,,,,,,,,,
N#Cc1cccc(C2C3=C(COC3=O)N(CCO)c3cc4c(cc32)OCO4)c1 (configuration not stated),4.7,> 50 µM,> 50 µM,> 50 µM,> 50 µM,> 50 µM,,> 50 µM,1.03 µM,> 50 µM,0.561,1980,1.74,1350,1530 nM,1580 nM,942 nM,154,6.17,
COc1ccc([C@@H]2OC(=O)C3C2C(=O)O[C@H]3c2ccc(OC)c(OC)c2)cc1OC (some centres not stated),> 100,,> 100 µM,> 100 µM,> 100 µM,> 100 µM,> 100 µM,,,> 100 µM,,,,,,,,,,
CN(N)c1nc(N)c(C#N)c(C#N)c1C#N,> 10,> 10 µM,> 10 µM,> 10 µM,> 10 µM,> 10 µM,,> 10 µM,> 10 µM,> 10 µM,,,,,,,,,,
CCCCn1c(=O)c(/C=C/C(=O)/C=C/c2cc3ccccc3n(CCCC)c2=O)cc2ccccc21,4.07,2.2 µM,2.2 µM,2.47 µM,,3.16 µM,5.7 µM,1.84 µM,0.478 µM,3.17 µM,1.86,702,0.678,1210,,1410 nM,306 nM,206,1.56,2.09 µM
N#Cc1cc(S(=O)(=O)Nc2nc3ccccc3o2)c(SCc2ccccc2)cc1Cl,40.4,41.3 µM,40.7 µM,52.3 µM,,> 100 µM,53.4 µM,> 100 µM,60.2 µM,55 µM,17,20500,20.3,24200,,30600 nM,39800 nM,27200,22.5,22.3 µM
